Measured values: the supplement of paper PMC11208160

Test: recombinant barcode read abundance after kanamycin selection (control-corrected) (log10(CPM+1)); higher = more efficient recombination; sequences stand for … in AGTGCAGAGAAAATCGGCCAGTTTTCTCTGCCTGCAGTCCGCATGCCGT…AGATTTATGCAGCGGACTGCCTTTCTCCCAAAGTGATAAACCGGACAGTATCATGGACCGGTTTTCCCGGTAATCCGTATTTGCAAGGTTGGTTTCACT; site = the 11-nt target
Method in brief: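 Values are log10(CPM+1) from a pooled E. coli screen of targets paired with IS621 bridge RNA target-binding loops. Recombination efficiency here means counts per million of recombinant-junction barcodes, averaged and control-corrected. Plates were chloramphenicol/ampicillin LB agar for the control and chloramphenicol/ampicillin/kanamycin with 0.1 mM IPTG, two replicates each.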
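Further: IS621 recombinase and bridge RNA in Escherichia coli cells.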

Row | Sequence | recombinant barcode read abundance (log10)
1 | GAAGGGACTTGGGTTCTAACCTGTTGCCT (site GAAGGGACTAG) | 2.11
2 | GAAGGGACTTGGGTTCTAACCTGTTGCCT (site GCAGGGACTAG) | 0.236
3 | GAAGGGACTTGGGTTCTAACCTGTTGCCT (site GGAGGGACTAG) | 0.585
4 | GAAGGGACTTGGGTTCTAACCTGTTGCCT (site GTAGGGACTAG) | 1.52
5 | GAAGTCGCTTGGGTTCTAACCTGTTGCCT (site GAAGACGCTAG) | 0.187
6 | GAAGTCGCTTGGGTTCTAACCTGTTGCCT (site GAAGCCGCTAG) | 0.508
7 | GAAGTCGCTTGGGTTCTAACCTGTTGCCT (site GAAGGCGCTAG) | 0
8 | GAAGTCGCTTGGGTTCTAACCTGTTGCCT (site GAAGTCGCTAG) | 1.78
9 | GAATATTCTTGGGTTCTAACCTGTTGCCT (site GAATATTCTAG) | 0.739
10 | GAATATTCTTGGGTTCTAACCTGTTGCCT (site GACTATTCTAG) | 0.0547
11 | GAATATTCTTGGGTTCTAACCTGTTGCCT (site GAGTATTCTAG) | 0.136
12 | GAATATTCTTGGGTTCTAACCTGTTGCCT (site GATTATTCTAG) | 0.27
13 | GAATGTCCTTGGGTTCTAACCTGTTGCAT (site GAATGTCCTAT) | 1.39
14 | GAATGTCCTTGGGTTCTAACCTGTTGCAT (site GCATGTCCTAT) | 0.0491
15 | GACAATGCTTGGGTTCTAACCTGTTGCAT (site ACGTGGACTTA) | 0.229
16 | GACAATGCTTGGGTTCTAACCTGTTGCAT (site GACAATGCTAT) | 0.105
17 | GACACAACTTGGGTTCTAACCTGTTGCCA (site CGGCTCCCTAA) | 0.208
18 | GACACAACTTGGGTTCTAACCTGTTGCCA (site GACACAACTTG) | 0.018
19 | GACACGCCTTGGGTTCTAACCTGTTGCCT (site GACACGCCTAA) | 0.301
20 | GACACGCCTTGGGTTCTAACCTGTTGCCT (site GACACGCCTAC) | 0.0669
21 | GACACGCCTTGGGTTCTAACCTGTTGCCT (site GACACGCCTAG) | 0.156
22 | GACACGCCTTGGGTTCTAACCTGTTGCCT (site GACACGCCTAT) | 0.146

Row | Sequence | recombinant barcode read abundance (log10)
23 | GACACGCCTTGGGTTCTAACCTGTTGCGT (site GACACGCCTAA) | 0.205
24 | GACACGCCTTGGGTTCTAACCTGTTGCGT (site GACACGCCTAC) | 0.571
25 | GACACGCCTTGGGTTCTAACCTGTTGCGT (site GACACGCCTAG) | 0.156
26 | GACACGCCTTGGGTTCTAACCTGTTGCGT (site GACACGCCTAT) | 0.147
27 | GACACGTCTTGGGTTCTAACCTGTTGCCT (site GACACCTCTAA) | 0
28 | GACACGTCTTGGGTTCTAACCTGTTGCCT (site GACACGTCTAG) | 0.534
29 | GACAGGACTTGGGTTCTAACCTGTTGCCT (site AACACGACTAG) | 0.196
30 | GACAGGACTTGGGTTCTAACCTGTTGCCT (site GACAGGACTAG) | 1.32
31 | GACATCACTTGGGTTCTAACCTGTTGCCT (site GACATCACTAG) | 0.767
32 | GACATCACTTGGGTTCTAACCTGTTGCCT (site GACATCCCTAG) | 0.0352
33 | GACATCACTTGGGTTCTAACCTGTTGCCT (site GACATCGCTAG) | 0.192
34 | GACATCACTTGGGTTCTAACCTGTTGCCT (site GACATCTCTAG) | 0.0671
35 | GACATCCCTTGGGTTCTAACCTGTTGCCT (site GACATCACTAG) | 0.045
36 | GACATCCCTTGGGTTCTAACCTGTTGCCT (site GACATCCCTAG) | 1.45
37 | GACATCCCTTGGGTTCTAACCTGTTGCCT (site GACATCGCTAG) | 0.0465
38 | GACATCCCTTGGGTTCTAACCTGTTGCCT (site GACATCTCTAG) | 0.142
39 | GACATCTCTTGGGTTCTAACCTGTTGCCT (site GACATCACTAG) | 0.105
40 | GACATCTCTTGGGTTCTAACCTGTTGCCT (site GACATCCCTAG) | 0.00568
41 | GACATCTCTTGGGTTCTAACCTGTTGCCT (site GACATCGCTAG) | 0.0954
42 | GACATCTCTTGGGTTCTAACCTGTTGCCT (site GACATCTCTAG) | 1.19
43 | GACCGAGCTTGGGTTCTAACCTGTTGCCT (site GACCGAGCTAG) | 1.33
